# Laboratory results taken from paper PMC11063076, “Structural investigation of Trypanosoma cruzi Akt-like kinase as drug target against Chagas disease” (Scientific Reports, 2024).
# Target: T1, TcAkt (T. cruzi Akt-like kinase), PH domain (Trypanosoma cruzi, UniProt Q4D6D3)
# T1 construct: gene Tc00.1047053509047.110; TcAkt-PH (aa 1–105), C-terminal 6xHis-tag
# Assay: NMR 1H-15N HSQC chemical shift perturbation titration; hetNOE
# Format: binding
# T1 sequence (Q4D6D3 entry or part of it): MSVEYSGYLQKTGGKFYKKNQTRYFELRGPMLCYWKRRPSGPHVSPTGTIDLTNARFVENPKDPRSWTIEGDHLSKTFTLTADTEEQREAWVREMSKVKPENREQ
structure (smiles),measurement,value
"O=P(O)(O)O[C@H]1[C@H](O)[C@@H](OP(=O)(O)O)[C@H](OP(=O)(O)O)[C@@H](OP(=O)(O)O)[C@H]1O [Ins(1,3,4,5)P4]",Kd,40 ± 14 µM
